Measurements: publication PMC2009384, “The carcinogenicity of polycyclic hydrocarbon epoxides in newborn mice” (British Journal of Cancer, 1975)

Test system: newborn Swiss mice
Experiment: Experiment I: carcinogenicity in newborn mice, benz(a)anthracene vs its K region epoxide (s.c. injection, tumour incidence to 70-75 weeks)
Description: Br. J. Cancer (1975) 31, 182 THE CARCINOGENICITY OF POLYCYCLIC HYDROCARBON EPOXIDES IN NEWBORN MICE P. L. GROVER, P. SIMS, B. C. V. MITCHLEY AND F. J. C. ROE From the Chester Beatty Research Institute, Institute of Cancer Research, Royal Cancer Hospital, Fulham Road, London, SW3 6JB Received 9 August 1974. […] THE HYPOTHESIS that the carcino- genicity of polycyclic hydrocarbons is associated with the formation of epoxide metabolites (Grover, Hewer and Sims, 1971, 1972; Keysell et al., 1973) is sup- ported by some experimental evidence but remains unproven. […] The epoxides can also act as alkylating agents (Grover and Sims, 1970) and as mutagens (Ames, Sims and Grover, 1972; Huberman et al., 1971; Cookson, Sims and Grover, 1971; Fahmy and Fahmy, 1973). […] The newborn mouse, which is susceptible to carcinogenic polycyclic hydrocarbons (Roe, Rowson and Salaman, 1961; Roe, Mitchley and Walters, 1963; Walters and Roe, 1964, 1966) can be considered as a convenient source of several types of rapidly dividing cells. Consequently we have tested the K region epoxides derived from phenanthrene, benz(a)anthracene, 7-methylbenz(a)anthracene, dibenz(a,h)- anthracene, chrysene and 3-methylchol- anthrene, together with some of the CARCINOGENICITY OF POLYCYCLIC HYDROCARBON EPOXIDES IN MICE 183 parent hydrocarbons, for carcinogenicity using newborn mice. This paper presents the results that were obtained in these experiments. MATERIALS AND METHODS The polycyclic hydrocarbon epoxides, phenanthrene 9,10-oxide, benz(a)anthracene 5,6-oxide, 7-methylbenz(a)anthracene 5,6- oxide, dibenz(a,h)anthracene 5,6-oxide, chry- sene 5,6-oxide and 3-methylcholanthrene 11,12-oxide were prepared from the parent hydrocarbons (Newman and Blum, 1964; Boyland and Sims, 1965; Sims 1966). Two experiments were undertaken fol- lowing similar protocols. For each experi- ment Swiss mice from a specific pathogen- free colony were time mated so as to produce a large number of litters over the course of 2 or 3 days. […] Test compounds were suspended in poly- ethylene glycol (PEG) 400 and injections of 0-02 ml of the suspension were given by introducing a 25 gauge hypodermic needle through the skin near the root of the tail and threading it subcutaneously to deliver the injected material in the interscapular region. Injections were given to every mouse on the first day or first 3 days of life. The details of treatments and numbers of mice of each sex in each group are shown in Table I (Experiment I) and Table II (Ex- periment II). Surviving mice were weaned when they w ere 21 days old. Thereafter, males and females w ere separated and housed 6 per cage in metal boxes. A mixture of sawdust and wood shavings was used as bedding. The mice were fed on a standard cubed diet (Formulation 86 from C. Holdman and Sons (Plow co Feeds), Byers Lane, South Godstone, Surrey) and water was given ad libitum. Mice were inspected daily, and at weekly intervals they were weighed and palpated for tumours and other lesions. […] The experiment was terminated when surviving mice were between 70 and 75 weeks old. A full routine post- mortem examination, which included disten- sion of the urinary bladder with fixative, was carried out. The number of lesions thought to be neoplasms and the size of the largest such lesion in each organ affected were recorded. All tissues with suspected neoplasms were fixed in Bouin's solution. Haematoxylin and eosin stained 5 µm paraffin wax sections were prepared and examined microscopically. RESULTS The results of the two experiments in terms of tumour incidence are sum- marized in […].

[1] = females, 50 µg per treatment s.c. on Days 0, 1 and 2
[2] = females, 50 µg per treatment s.c. on Days 0, 1 and 2 in PEG 400
[3] = females, 100 µg per treatment s.c. on Days 0, 1 and 2
[4] = females, 100 µg per treatment s.c. on Days 0, 1 and 2 in PEG 400
[5] = females, 200 µg per treatment s.c. on Days 0, 1 and 2
[6] = females, 200 µg per treatment s.c. on Days 0, 1 and 2 in PEG 400
[7] = males, 50 µg per treatment s.c. on Days 0, 1 and 2
[8] = males, 50 µg per treatment s.c. on Days 0, 1 and 2 in PEG 400
[9] = males, 100 µg per treatment s.c. on Days 0, 1 and 2
[10] = males, 100 µg per treatment s.c. on Days 0, 1 and 2 in PEG 400
[11] = males, 200 µg per treatment s.c. on Days 0, 1 and 2
[12] = males, 200 µg per treatment s.c. on Days 0, 1 and 2 in PEG 400

c1ccc2c(c1)-c1cc3ccccc3cc1[C@H]1O[C@@H]21 [Benz(a)anthracene 5,6-oxide, benz(a)anthracene 5,6-oxide]
incidence of liver tumours in males (2 higher levels (Groups D and E, 3 x 200 and 3 x 100 µg)): increase in incidence
No. of mice examined at p.m. at termination of experiment (70th-75th week) with liver tumours [1]: 0
No. of mice examined at p.m. at termination of experiment (70th-75th week) with lung tumours [1]: 2
No. of mice examined at p.m. at termination of experiment (70th-75th week) with multiple liver tumours [1]: 0
No. of mice examined at p.m. at termination of experiment (70th-75th week) with multiple lung tumours [1]: 0
No. of mice examined at p.m. at termination of experiment (70th-75th week) with other tumours [1]: 2
No. of mice examined at p.m. from 50th-70th week with liver tumours [1]: 0
No. of mice examined at p.m. from 50th-70th week with lung tumours [1]: 0
No. of mice examined at p.m. from 50th-70th week with other tumours [1]: 1
No. of survivors at 50 weeks [2]: 18
No. of survivors at 70 weeks [2]: 16
No. of mice examined at p.m. at termination of experiment (70th-75th week) with liver tumours [3]: 0
No. of mice examined at p.m. at termination of experiment (70th-75th week) with lung tumours [3]: 6
No. of mice examined at p.m. at termination of experiment (70th-75th week) with multiple liver tumours [3]: 0
No. of mice examined at p.m. at termination of experiment (70th-75th week) with multiple lung tumours [3]: 5
No. of mice examined at p.m. at termination of experiment (70th-75th week) with other tumours [3]: 1
No. of mice examined at p.m. from 50th-70th week with liver tumours [3]: 0
No. of mice examined at p.m. from 50th-70th week with lung tumours [3]: 0
No. of mice examined at p.m. from 50th-70th week with other tumours [3]: 0
No. of survivors at 50 weeks [4]: 24
No. of survivors at 70 weeks [4]: 22
No. of mice examined at p.m. at termination of experiment (70th-75th week) with liver tumours [5]: 2
No. of mice examined at p.m. at termination of experiment (70th-75th week) with lung tumours [5]: 1
No. of mice examined at p.m. at termination of experiment (70th-75th week) with multiple liver tumours [5]: 0
No. of mice examined at p.m. at termination of experiment (70th-75th week) with multiple lung tumours [5]: 0
No. of mice examined at p.m. at termination of experiment (70th-75th week) with other tumours [5]: 0
No. of mice examined at p.m. from 50th-70th week with liver tumours [5]: 0
No. of mice examined at p.m. from 50th-70th week with lung tumours [5]: 0
No. of mice examined at p.m. from 50th-70th week with other tumours [5]: 0
No. of survivors at 50 weeks [6]: 21
No. of survivors at 70 weeks [6]: 20
incidence of the 2 kinds of tumour (liver, lung) compared with vehicle group (lowest level of dosage, Group F, 3 x 50 µg): not very different from that in Group G
No. of mice examined at p.m. at termination of experiment (70th-75th week) with liver tumours [7]: 4
No. of mice examined at p.m. at termination of experiment (70th-75th week) with lung tumours [7]: 5
No. of mice examined at p.m. at termination of experiment (70th-75th week) with multiple liver tumours [7]: 1
No. of mice examined at p.m. at termination of experiment (70th-75th week) with multiple lung tumours [7]: 1
No. of mice examined at p.m. at termination of experiment (70th-75th week) with other tumours [7]: 0
No. of mice examined at p.m. from 50th-70th week with liver tumours [7]: 0
No. of mice examined at p.m. from 50th-70th week with lung tumours [7]: 0
No. of mice examined at p.m. from 50th-70th week with other tumours [7]: 0
No. of survivors at 50 weeks [8]: 16
No. of survivors at 70 weeks [8]: 16
No. of mice examined at p.m. at termination of experiment (70th-75th week) with liver tumours [9]: 12
No. of mice examined at p.m. at termination of experiment (70th-75th week) with lung tumours [9]: 3
No. of mice examined at p.m. at termination of experiment (70th-75th week) with multiple liver tumours [9]: 8
No. of mice examined at p.m. at termination of experiment (70th-75th week) with multiple lung tumours [9]: 0
No. of mice examined at p.m. at termination of experiment (70th-75th week) with other tumours [9]: 0
No. of mice examined at p.m. from 50th-70th week with liver tumours [9]: 0
No. of mice examined at p.m. from 50th-70th week with lung tumours [9]: 1
No. of mice examined at p.m. from 50th-70th week with other tumours [9]: 0
No. of survivors at 50 weeks [10]: 27
No. of survivors at 70 weeks [10]: 26
No. of mice examined at p.m. at termination of experiment (70th-75th week) with liver tumours [11]: 5
No. of mice examined at p.m. at termination of experiment (70th-75th week) with lung tumours [11]: 2
No. of mice examined at p.m. at termination of experiment (70th-75th week) with multiple liver tumours [11]: 4
No. of mice examined at p.m. at termination of experiment (70th-75th week) with multiple lung tumours [11]: 1
No. of mice examined at p.m. at termination of experiment (70th-75th week) with other tumours [11]: 2
No. of mice examined at p.m. from 50th-70th week with liver tumours [11]: 2
No. of mice examined at p.m. from 50th-70th week with lung tumours [11]: 0
No. of mice examined at p.m. from 50th-70th week with other tumours [11]: 0
No. of survivors at 50 weeks [12]: 21
No. of survivors at 70 weeks [12]: 18
activity in increasing liver and lung tumour incidence compared with parent compound (parenteral administration during early neonatal life): less active than its parent compound
